Source: publication PMC9571063 (Molecules, 2022)

Legend:
Assay in all cases: KINOMEscan
Format in all cases: binding
Conditions in all cases: read-out: Percent Control
[1] = molecular target: T1, IRAK4 (Homo sapiens, UniProt Q9NWZ3)
T1 construct: purchased Eurofins DiscoverX KINOMEscan (scanMAX 468)

[2] = molecular target: T2, PKN2 (Homo sapiens, UniProt Q16513)
T2 construct: purchased Eurofins DiscoverX KINOMEscan (scanMAX 468)

[3] = molecular target: T3, AURKA (Homo sapiens, UniProt O14965)
T3 construct: purchased Eurofins DiscoverX KINOMEscan (scanMAX 468)

[4] = molecular target: T4, JAK1(JH1domain-catalytic) (Homo sapiens, UniProt P23458)
T4 construct: JAK1(JH1domain-catalytic); purchased Eurofins DiscoverX KINOMEscan (scanMAX 468)

[5] = molecular target: T5, EGFR(L747-E749del, A750P) (Homo sapiens, UniProt P00533, A750P/DEL747-749)
T5 construct: purchased Eurofins DiscoverX KINOMEscan (scanMAX 468)
T5 sequence (P00533 with tags, fused parts or gaps DEL747-749/A750P limits assumed): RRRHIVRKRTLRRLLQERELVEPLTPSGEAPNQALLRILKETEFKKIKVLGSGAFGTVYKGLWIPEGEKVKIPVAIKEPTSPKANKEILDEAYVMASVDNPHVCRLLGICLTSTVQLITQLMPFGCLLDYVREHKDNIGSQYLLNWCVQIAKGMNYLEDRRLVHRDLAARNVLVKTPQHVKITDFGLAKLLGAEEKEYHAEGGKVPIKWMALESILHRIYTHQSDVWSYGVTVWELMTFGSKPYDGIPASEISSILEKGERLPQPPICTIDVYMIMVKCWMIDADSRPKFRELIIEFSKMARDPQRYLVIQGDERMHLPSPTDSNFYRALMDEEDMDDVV

[6] = molecular target: T6, KIT(V559D) (Homo sapiens, UniProt P10721, V559D)
T6 construct: purchased Eurofins DiscoverX KINOMEscan (scanMAX 468)
T6 sequence (P10721 26-976 V559D): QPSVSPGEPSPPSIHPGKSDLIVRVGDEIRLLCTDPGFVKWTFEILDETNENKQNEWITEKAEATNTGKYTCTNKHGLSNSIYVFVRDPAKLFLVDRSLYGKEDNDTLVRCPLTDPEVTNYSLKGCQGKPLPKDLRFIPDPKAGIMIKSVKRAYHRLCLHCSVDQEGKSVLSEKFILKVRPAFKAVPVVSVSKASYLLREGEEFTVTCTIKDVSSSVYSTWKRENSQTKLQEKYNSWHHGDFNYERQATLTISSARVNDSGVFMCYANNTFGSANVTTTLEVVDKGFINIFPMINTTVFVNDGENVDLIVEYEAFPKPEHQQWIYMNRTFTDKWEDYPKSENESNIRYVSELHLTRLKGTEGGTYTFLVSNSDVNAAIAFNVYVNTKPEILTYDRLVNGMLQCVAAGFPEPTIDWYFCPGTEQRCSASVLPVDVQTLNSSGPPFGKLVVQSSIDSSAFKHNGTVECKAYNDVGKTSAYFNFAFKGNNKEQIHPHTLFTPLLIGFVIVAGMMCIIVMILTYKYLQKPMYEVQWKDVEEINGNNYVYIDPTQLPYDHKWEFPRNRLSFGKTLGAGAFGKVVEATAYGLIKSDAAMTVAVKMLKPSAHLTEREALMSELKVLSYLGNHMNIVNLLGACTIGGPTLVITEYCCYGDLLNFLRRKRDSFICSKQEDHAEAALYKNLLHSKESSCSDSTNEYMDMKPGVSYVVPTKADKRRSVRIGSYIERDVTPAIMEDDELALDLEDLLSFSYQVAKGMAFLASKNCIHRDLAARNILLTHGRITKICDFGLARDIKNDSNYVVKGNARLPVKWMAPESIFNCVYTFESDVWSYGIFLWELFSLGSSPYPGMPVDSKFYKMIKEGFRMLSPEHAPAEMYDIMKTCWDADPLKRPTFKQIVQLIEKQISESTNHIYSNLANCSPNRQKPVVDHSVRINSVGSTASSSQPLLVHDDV

[7] = molecular target: T7, PIK3CA(I800L) (Homo sapiens, UniProt P42336, I800L)
T7 construct: purchased Eurofins DiscoverX KINOMEscan (scanMAX 468)

[8] = molecular target: T8, CAMKK1 (Homo sapiens, UniProt Q8N5S9)
T8 construct: purchased Eurofins DiscoverX KINOMEscan (scanMAX 468)

[9] = molecular target: T9, RSK4(Kin.Dom.1-N-terminal) (Homo sapiens, UniProt Q9UK32)
T9 construct: RSK4(Kin.Dom.1-N-terminal); purchased Eurofins DiscoverX KINOMEscan (scanMAX 468)

[10] = molecular target: T10, RSK4(Kin.Dom.2-C-terminal) (Homo sapiens, UniProt Q9UK32)
T10 construct: RSK4(Kin.Dom.2-C-terminal); purchased Eurofins DiscoverX KINOMEscan (scanMAX 468)

[11] = molecular target: T11, CSNK1A1L (Homo sapiens, UniProt Q8N752)
T11 construct: purchased Eurofins DiscoverX KINOMEscan (scanMAX 468)

[12] = molecular target: T12, INSR (Homo sapiens, UniProt P06213)
T12 construct: purchased Eurofins DiscoverX KINOMEscan (scanMAX 468)

[13] = molecular target: T13, WEE1 (Homo sapiens, UniProt P30291)
T13 construct: purchased Eurofins DiscoverX KINOMEscan (scanMAX 468)

[14] = molecular target: T14, MELK (Homo sapiens, UniProt Q14680)
T14 construct: purchased Eurofins DiscoverX KINOMEscan (scanMAX 468)

[15] = molecular target: T15, ERBB3 (Homo sapiens, UniProt P21860)
T15 construct: purchased Eurofins DiscoverX KINOMEscan (scanMAX 468)

[16] = molecular target: T16, RSK2(Kin.Dom.1-N-terminal) (Homo sapiens, UniProt P51812)
T16 construct: RSK2(Kin.Dom.1-N-terminal); purchased Eurofins DiscoverX KINOMEscan (scanMAX 468)

[17] = molecular target: T17, CDKL3 (Homo sapiens, UniProt Q8IVW4)
T17 construct: purchased Eurofins DiscoverX KINOMEscan (scanMAX 468)

[18] = molecular target: T18, CAMK2G (Homo sapiens, UniProt Q13555)
T18 construct: purchased Eurofins DiscoverX KINOMEscan (scanMAX 468)

[19] = molecular target: T19, PHKG2 (Homo sapiens, UniProt P15735)
T19 construct: purchased Eurofins DiscoverX KINOMEscan (scanMAX 468)

[20] = molecular target: T20, YSK4 (Homo sapiens, UniProt Q56UN5)
T20 construct: purchased Eurofins (KINOMEscan, DiscoverX)
T20 sequence (Q56UN5 whole entry): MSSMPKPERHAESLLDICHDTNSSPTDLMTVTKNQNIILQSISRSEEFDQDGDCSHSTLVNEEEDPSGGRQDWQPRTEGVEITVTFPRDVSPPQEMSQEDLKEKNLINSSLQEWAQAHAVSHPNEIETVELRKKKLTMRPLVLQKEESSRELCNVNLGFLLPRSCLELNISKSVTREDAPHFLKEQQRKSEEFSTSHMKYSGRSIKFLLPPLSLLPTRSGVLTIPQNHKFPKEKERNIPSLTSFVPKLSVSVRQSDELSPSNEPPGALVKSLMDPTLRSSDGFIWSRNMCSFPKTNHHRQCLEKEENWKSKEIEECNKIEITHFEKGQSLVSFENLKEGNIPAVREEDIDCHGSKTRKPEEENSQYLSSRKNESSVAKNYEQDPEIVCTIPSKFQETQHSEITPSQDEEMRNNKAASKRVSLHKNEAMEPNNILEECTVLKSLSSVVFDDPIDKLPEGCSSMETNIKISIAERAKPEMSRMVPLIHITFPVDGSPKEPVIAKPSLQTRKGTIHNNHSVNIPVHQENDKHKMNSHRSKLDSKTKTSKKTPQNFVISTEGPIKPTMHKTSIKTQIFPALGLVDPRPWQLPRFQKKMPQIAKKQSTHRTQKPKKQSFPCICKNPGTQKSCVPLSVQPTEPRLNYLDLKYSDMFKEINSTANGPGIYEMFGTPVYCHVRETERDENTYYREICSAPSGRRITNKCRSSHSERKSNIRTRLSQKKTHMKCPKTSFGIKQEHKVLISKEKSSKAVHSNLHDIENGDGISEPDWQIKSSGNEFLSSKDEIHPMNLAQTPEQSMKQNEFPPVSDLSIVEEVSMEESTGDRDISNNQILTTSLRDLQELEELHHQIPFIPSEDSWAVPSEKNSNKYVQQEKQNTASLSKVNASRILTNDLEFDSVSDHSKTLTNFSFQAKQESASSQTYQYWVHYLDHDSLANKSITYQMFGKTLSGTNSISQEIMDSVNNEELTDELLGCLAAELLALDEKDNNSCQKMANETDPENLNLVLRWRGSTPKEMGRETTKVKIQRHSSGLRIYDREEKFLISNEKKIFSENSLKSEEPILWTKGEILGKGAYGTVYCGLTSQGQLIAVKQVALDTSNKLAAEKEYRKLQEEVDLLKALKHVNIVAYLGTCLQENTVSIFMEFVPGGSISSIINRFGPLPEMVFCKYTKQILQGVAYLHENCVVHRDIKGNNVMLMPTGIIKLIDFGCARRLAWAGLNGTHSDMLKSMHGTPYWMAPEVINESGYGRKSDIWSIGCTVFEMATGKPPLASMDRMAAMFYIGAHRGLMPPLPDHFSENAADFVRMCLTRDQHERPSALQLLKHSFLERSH

[21] = molecular target: T21, CSNK1G2 (Homo sapiens, UniProt P78368)
T21 construct: purchased Eurofins DiscoverX KINOMEscan (scanMAX 468)

[22] = molecular target: T22, IRAK3 (Homo sapiens, UniProt Q9Y616)
T22 construct: purchased Eurofins DiscoverX KINOMEscan (scanMAX 468)

[23] = molecular target: T23, CSNK2A2 (Homo sapiens, UniProt P19784)
T23 construct: purchased Eurofins DiscoverX KINOMEscan (scanMAX 468)

[24] = molecular target: T24, PRKG1 (Homo sapiens, UniProt Q13976)
T24 construct: purchased Eurofins DiscoverX KINOMEscan (scanMAX 468)

[25] = molecular target: T25, PIK3CA(E542K) (Homo sapiens, UniProt P42336, E542K)
T25 construct: purchased Eurofins DiscoverX KINOMEscan (scanMAX 468)

[26] = molecular target: T26, ABL1(M351T)-phosphorylated (Homo sapiens, UniProt P00519, M351T)
T26 construct: purchased Eurofins DiscoverX KINOMEscan (scanMAX 468)

[27] = molecular target: T27, SRMS (Homo sapiens, UniProt Q9H3Y6)
T27 construct: purchased Eurofins DiscoverX KINOMEscan (scanMAX 468)
T27 sequence (Q9H3Y6 whole entry): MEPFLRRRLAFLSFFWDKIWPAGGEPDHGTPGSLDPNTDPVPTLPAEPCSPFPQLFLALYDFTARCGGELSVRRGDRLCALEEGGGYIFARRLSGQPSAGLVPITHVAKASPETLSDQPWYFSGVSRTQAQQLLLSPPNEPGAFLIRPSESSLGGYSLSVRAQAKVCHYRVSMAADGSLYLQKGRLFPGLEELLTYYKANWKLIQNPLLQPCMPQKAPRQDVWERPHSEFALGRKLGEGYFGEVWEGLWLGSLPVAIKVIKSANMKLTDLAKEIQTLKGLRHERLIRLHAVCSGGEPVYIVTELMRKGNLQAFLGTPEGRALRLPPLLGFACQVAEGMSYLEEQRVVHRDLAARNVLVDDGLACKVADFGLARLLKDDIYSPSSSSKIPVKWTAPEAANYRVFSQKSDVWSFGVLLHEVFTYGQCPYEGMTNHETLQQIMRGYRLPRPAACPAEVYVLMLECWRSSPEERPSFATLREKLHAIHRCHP

[28] = molecular target: T28, FAK (Homo sapiens, UniProt Q05397)
T28 construct: purchased Eurofins DiscoverX KINOMEscan (scanMAX 468)

[29] = molecular target: T29, TGFBR2 (Homo sapiens, UniProt P37173)
T29 construct: purchased Eurofins DiscoverX KINOMEscan (scanMAX 468)

[30] = molecular target: T30, AAK1 (Homo sapiens, UniProt Q2M2I8)
T30 construct: purchased Eurofins DiscoverX KINOMEscan (scanMAX 468)

[31] = molecular target: T31, MKNK2 (Homo sapiens, UniProt Q9HBH9)
T31 construct: purchased Eurofins DiscoverX KINOMEscan (scanMAX 468)

[32] = molecular target: T32, GCN2(Kin.Dom.2,S808G) (Homo sapiens, UniProt Q9P2K8, S808G)
T32 construct: GCN2(Kin.Dom.2,S808G); purchased Eurofins DiscoverX KINOMEscan (scanMAX 468)

[33] = molecular target: T33, GRK3 (Homo sapiens, UniProt P35626)
T33 construct: purchased Eurofins DiscoverX KINOMEscan (scanMAX 468)
T33 sequence (P35626 whole entry): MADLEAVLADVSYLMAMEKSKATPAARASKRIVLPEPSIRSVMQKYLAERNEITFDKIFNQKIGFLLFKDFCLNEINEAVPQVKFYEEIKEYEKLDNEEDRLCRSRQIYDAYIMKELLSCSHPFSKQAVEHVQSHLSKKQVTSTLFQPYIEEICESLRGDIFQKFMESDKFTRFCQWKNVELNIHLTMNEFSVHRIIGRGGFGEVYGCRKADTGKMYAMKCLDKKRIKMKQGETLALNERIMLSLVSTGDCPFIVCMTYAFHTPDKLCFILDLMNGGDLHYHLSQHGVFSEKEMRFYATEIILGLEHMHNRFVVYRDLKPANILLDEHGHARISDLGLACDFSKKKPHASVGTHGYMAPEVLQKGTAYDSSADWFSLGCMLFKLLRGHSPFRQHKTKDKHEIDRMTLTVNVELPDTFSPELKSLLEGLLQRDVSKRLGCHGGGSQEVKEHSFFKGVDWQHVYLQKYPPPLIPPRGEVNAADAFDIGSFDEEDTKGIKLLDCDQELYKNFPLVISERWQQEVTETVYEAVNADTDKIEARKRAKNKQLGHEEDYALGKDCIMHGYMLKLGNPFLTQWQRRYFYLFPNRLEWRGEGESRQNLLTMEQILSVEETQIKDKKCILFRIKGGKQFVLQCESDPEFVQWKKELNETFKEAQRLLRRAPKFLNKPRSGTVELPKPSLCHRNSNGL

[34] = molecular target: T34, ROCK2 (Homo sapiens, UniProt O75116)
T34 construct: purchased Eurofins DiscoverX KINOMEscan (scanMAX 468)

[35] = molecular target: T35, KIT(V559D,T670I) (Homo sapiens, UniProt P10721, T670I/V559D)
T35 construct: purchased Eurofins DiscoverX KINOMEscan (scanMAX 468)
T35 sequence (P10721 26-976 V559D/T670I): as the sequence (P10721 26-976 V559D) above, with T645I counted along it

[36] = molecular target: T36, MARK4 (Homo sapiens, UniProt Q96L34)
T36 construct: purchased Eurofins DiscoverX KINOMEscan (scanMAX 468)
T36 sequence (Q96L34 whole entry): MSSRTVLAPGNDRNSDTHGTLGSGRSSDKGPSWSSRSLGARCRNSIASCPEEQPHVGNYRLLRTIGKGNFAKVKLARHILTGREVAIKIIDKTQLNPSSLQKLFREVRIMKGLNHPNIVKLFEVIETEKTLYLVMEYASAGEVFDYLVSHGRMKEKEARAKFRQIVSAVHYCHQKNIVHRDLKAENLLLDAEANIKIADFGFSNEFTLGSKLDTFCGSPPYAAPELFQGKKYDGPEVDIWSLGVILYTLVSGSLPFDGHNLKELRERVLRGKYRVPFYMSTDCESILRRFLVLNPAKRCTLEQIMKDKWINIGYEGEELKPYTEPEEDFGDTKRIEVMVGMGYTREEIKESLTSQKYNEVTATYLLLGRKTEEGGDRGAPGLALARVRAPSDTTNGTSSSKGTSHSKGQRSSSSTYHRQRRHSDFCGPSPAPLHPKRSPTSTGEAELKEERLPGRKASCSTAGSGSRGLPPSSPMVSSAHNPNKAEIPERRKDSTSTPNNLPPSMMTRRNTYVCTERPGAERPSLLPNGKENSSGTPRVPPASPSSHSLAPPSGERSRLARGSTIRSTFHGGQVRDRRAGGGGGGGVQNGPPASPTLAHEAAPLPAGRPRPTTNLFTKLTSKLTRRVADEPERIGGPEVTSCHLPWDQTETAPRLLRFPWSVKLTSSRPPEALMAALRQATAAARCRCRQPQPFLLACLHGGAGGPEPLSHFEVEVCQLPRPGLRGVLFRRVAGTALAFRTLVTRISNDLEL

[37] = molecular target: T37, CDK4-cyclinD1 (Homo sapiens, UniProt P11802)
T37 construct: purchased Eurofins DiscoverX KINOMEscan (scanMAX 468)

[38] = molecular target: T38, PHKG1 (Homo sapiens, UniProt Q16816)
T38 construct: purchased Eurofins DiscoverX KINOMEscan (scanMAX 468)

[39] = molecular target: T39, ASK1 (Homo sapiens, UniProt Q99683)
T39 construct: purchased Eurofins DiscoverX KINOMEscan (scanMAX 468)

T1 sequence (Q9NWZ3 whole entry): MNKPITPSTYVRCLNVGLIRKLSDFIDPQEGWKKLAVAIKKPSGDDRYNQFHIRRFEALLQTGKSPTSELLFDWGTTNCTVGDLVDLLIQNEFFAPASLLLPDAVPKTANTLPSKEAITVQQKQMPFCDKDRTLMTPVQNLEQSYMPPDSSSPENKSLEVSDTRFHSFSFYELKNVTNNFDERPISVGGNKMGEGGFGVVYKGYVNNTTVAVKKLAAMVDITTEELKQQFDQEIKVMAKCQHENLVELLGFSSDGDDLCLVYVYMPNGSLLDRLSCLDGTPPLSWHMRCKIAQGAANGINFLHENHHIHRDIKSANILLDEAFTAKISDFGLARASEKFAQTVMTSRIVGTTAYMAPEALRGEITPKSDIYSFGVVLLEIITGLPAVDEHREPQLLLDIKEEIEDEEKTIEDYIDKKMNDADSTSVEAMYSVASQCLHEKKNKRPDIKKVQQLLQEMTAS

Compound: Cc1ccc(-n2cc(COc3cccc4cnc(Nc5cccc(Cl)c5)nc34)nn2)c([N+](=O)[O-])c1 [DB18]
- remaining binding at 1 µM [1]: 100%
- remaining binding at 1 µM [2]: 100%
- remaining binding at 1 µM [3]: 100%
- remaining binding at 1 µM [4]: 100%
- remaining binding at 1 µM [5]: 93%
- remaining binding at 1 µM [6]: 100%
- remaining binding at 1 µM [7]: 77%
- remaining binding at 1 µM [8]: 100%
- remaining binding at 1 µM [9]: 96%
- remaining binding at 1 µM [10]: 100%
- remaining binding at 1 µM [11]: 100%
- remaining binding at 1 µM [12]: 93%
- remaining binding at 1 µM [13]: 100%
- remaining binding at 1 µM [14]: 100%
- remaining binding at 1 µM [15]: 99%
- remaining binding at 1 µM [16]: 100%
- remaining binding at 1 µM [17]: 94%
- remaining binding at 1 µM [18]: 100%
- remaining binding at 1 µM [19]: 95%
- remaining binding at 1 µM [20]: 34%
- remaining binding at 1 µM [21]: 90%
- remaining binding at 1 µM [22]: 59%
- remaining binding at 1 µM [23]: 61%
- remaining binding at 1 µM [24]: 100%
- remaining binding at 1 µM [25]: 80%
- remaining binding at 1 µM [26]: 99%
- remaining binding at 1 µM [27]: 98%
- remaining binding at 1 µM [28]: 100%
- remaining binding at 1 µM [29]: 100%
- remaining binding at 1 µM [30]: 100%
- remaining binding at 1 µM [31]: 100%
- remaining binding at 1 µM [32]: 100%
- remaining binding at 1 µM [33]: 89%
- remaining binding at 1 µM [34]: 100%
- remaining binding at 1 µM [35]: 96%
- remaining binding at 1 µM [36]: 100%
- remaining binding at 1 µM [37]: 93%
- remaining binding at 1 µM [38]: 100%
- remaining binding at 1 µM [39]: 100%
